Data published in patent US5141959A, “Isoprenoid phospholipase A2 inhibitors and preparations comprising same” (Bristol-Myers Squibb Company, priority 1990, dated 1992).
Each block holds one compound with its values, some of them ahead of it.

Assays:
[1] = test system: myeloperoxidase (MPO) activity; test: Phorbol ester (TPA)-induced mouse ear inflammation assay: cell infiltration (neutrophil accumulation by myeloperoxidase activity); format: in vivo, CD-1 mice; settings: topical, six hours
Experimental: (§1) Anti-inflammatory activity of the test compounds was determined in the phorbol ester-induced mouse ear inflammation model. [Young J M, Wagner B M and Spires D A, J Invest Dermatol, 80, 48-52 (1983)]. In this assay, an inflammatory reaction is induced by the topical application of 0.01% (w/v) tetradecanoylphorbol-13-acetate (TPA) to the ears of CD-1 mice. An acute inflammatory reaction results in which the ears swell and inflammatory cells infiltrate the ear tissue. TPA, with and without various concentrations of test compound, was applied to the inner and outer aspects of the ears (10 μl/surface). After six hours, the mice were sacrificed and the ears were removed. Ear tissue punches (5/16") were taken from each ear and weighed to measure edema. The ear punches were then processed for the determination of neutrophil accumulation by measurement of myeloperoxidase (MPO) activity by the method of Bradley et al. [Bradley P P et al, J Invest Dermatol, 78, 206-209 (1982)]. MPO is a specific marker for the presence of neutrophils in tissue.
(§2) The anti-inflammatory activity produced by the test compound is calculated by comparing the edema or MPO values obtained for the drug-treated ears to those obtained for non-drug treated ears. Percent inhibition values were determined by the equation: [formula] […] The ED50 is estimated to be 0.8%.

human platelet PLA2 = target: T1, human platelet PLA2 (Homo sapiens, UniProt P14555); test: PLA2 Inhibition Assay (14C-oleate labeled E. coli membrane substrate); format: biochemical; settings: preincubation 7 min, incubation 30 min, 37° C., pH 7; unit inferred; read-out: IC50 for inhibition of human platelet phospholipase A2
T1 construct: The enzyme was isolated from human platelets; from tissue; host or cells: human platelets
T1 sequence (P14555 21-144): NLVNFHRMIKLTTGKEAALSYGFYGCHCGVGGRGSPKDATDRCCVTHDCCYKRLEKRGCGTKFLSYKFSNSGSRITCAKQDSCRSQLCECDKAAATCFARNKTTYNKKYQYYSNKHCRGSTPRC
Experimental: This assay is used to measure the inhibition of human platelet PLA2 by test compounds. The method used was similar to that reported by Franson et al. [Jesse RL and Franson RC, Biochem Biophys Acta, 575, 467-470 (1979)]. [Franson RC, Patriarca P and Elsback P, J Lipid Res 15, 380-388 (1974)]. The enzyme was isolated from human platelets. The substrate used consisted of ^14 C-oleate labeled E. coli membranes. E. Coli cells were grown in the presence of ^14 C-oleic acid and then autoclaved to prepare membranes. In the assay, various concentrations of test compounds are preincubated with PLA2 (7.5 μg/ml) in a buffer consisting of 25 mM HEPES (pH 7) 150 mM NaCl, 5.0 mM Cacl2, and 10% DMSO (test compound solvent) at 37° C. for 7 minutes. The E. coli membrane substrate is then added (0.1 mM phospholipid, 0.5 μCi/umol) and the reaction is incubated at 37° C. for 30 minutes. The final reaction volume is 0.1 ml. The reaction is quenched with tetrahydrofuran (1.9 ml), and the entire solution is applied to a solid-phase extraction column (aminopropylresin, Analytichem). […] The amount of free fatty acid product is determined by liquid scintillation counting. The amount of inhibition produced by the test compound is calculated by comparing the number of counts obtained in the presence of the compound to that obtained for the control reactions (test compound solvent only). […]

[2] = test system: TPA-induced mouse ear edema; test: Phorbol ester (TPA)-induced mouse ear inflammation assay: edema (ear weight); format: in vivo, CD-1 mice; settings: topical, six hours
Experimental: as §1, §2

IC50 (human platelet PLA2): 40 µM
Structure (SMILES): CC1=C(/C=C/C(C)=C/C=C(/C(C)=C\C(=O)O)c2cccc(C(=O)O)c2)C(C)(C)CCC1 [Compound I, 13-CIS-12-(3'-CARBOXYPHENYL)RETINOIC ACID]
Blocking of edema and cell infiltration (in words) ([1]; statement covers edema and cell infiltration): effectively blocks edema and cell infiltration | ED50, inhibition of cell infiltration ([1]; with TPA 0.01% (w/v), MPO activity): < 0.1% | Blocking of TPA-induced mouse ear edema (in words) [2]: dose-dependently blocks TPA-induced mouse ear edema | ED50, TPA-induced mouse ear edema ([2]; with TPA 0.01% (w/v)): ~0.8%

Structure (SMILES): CC1=C(/C=C/C(C)=C/C=C/C(C)=C/C(=O)O)C(C)(C)CCC1 [reference compound]
IC50 (human platelet PLA2): > 500 µM
